According to ChEMBL document CHEMBL4706501, “Drug repurposing: Discovery of troxipide analogs as potent antitumor agents” (Eur J Med Chem, 2020):

What was measured:
Type in all cases: functional, cell-based
PC-3 = experiment: Antiproliferative activity against human PC3 cells assessed as reduction in cell viability after 24 to 72 hrs by MTT assay
PC-9 = experiment: Antiproliferative activity against human PC9 cells assessed as reduction in cell viability after 24 to 72 hrs by MTT assay
MCF7 = experiment: Antiproliferative activity against human MCF7 cells assessed as reduction in cell viability after 24 to 72 hrs by MTT assay
MGC-803 = experiment: Antiproliferative activity against human MGC-803 cells assessed as reduction in cell viability after 24 to 72 hrs by MTT assay

| SMILES | IC50 (PC-3) [µM] | IC50 (PC-9) [µM] | IC50 (MCF7) [µM] | IC50 (MGC-803) [µM] |
| --- | --- | --- | --- | --- |
| O=c1[nH]cc(F)c(=O)[nH]1 [FLUOROURACIL] | 5.32 | 4.12 | – | – |
| COc1cc(C(=O)NC2CCCNC2)cc(OC)c1OC (stereo unspecified) [TROXIPIDE] | > 100 | > 100 | > 100 | > 100 |
